Source: ChEMBL document CHEMBL1148459, “1-alkyl-4-acylpiperazines as a new class of imidazole-free histamine H(3) receptor antagonists” (J Med Chem, 2004)

What follows are molecules tested against Histamine H3 receptor (Homo sapiens, UniProt Q9Y5N1) (assay: Antagonist potency against human histamine H3 receptor expressed in CHO cells was determined by GTPgamma-S-assay).
Assay type: functional, cell-based

Histamine H3 receptor, sequence (Q9Y5N1 whole entry): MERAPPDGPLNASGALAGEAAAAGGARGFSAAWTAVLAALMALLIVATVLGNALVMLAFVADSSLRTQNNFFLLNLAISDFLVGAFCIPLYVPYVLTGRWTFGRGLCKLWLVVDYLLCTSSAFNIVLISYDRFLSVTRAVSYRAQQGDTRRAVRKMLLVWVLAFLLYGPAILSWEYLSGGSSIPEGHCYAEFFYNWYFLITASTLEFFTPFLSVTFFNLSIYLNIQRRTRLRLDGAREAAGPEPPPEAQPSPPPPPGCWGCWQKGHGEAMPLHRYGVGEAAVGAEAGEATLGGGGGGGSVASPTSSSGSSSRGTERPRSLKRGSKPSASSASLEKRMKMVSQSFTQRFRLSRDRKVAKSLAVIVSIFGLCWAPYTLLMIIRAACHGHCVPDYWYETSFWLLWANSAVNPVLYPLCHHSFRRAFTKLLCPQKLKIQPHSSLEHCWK

Row | SMILES | Ki
1 | CCC(CC)N1CCN(C(=O)CCC(=O)c2ccc(F)cc2)CC1 | 1.5 nM
2 | CCC(CC)N1CCN(C(=O)CCC(=O)c2ccc(OC(F)(F)F)cc2)CC1 | 2.7 nM
3 | CCC(CC)N1CCN(C(=O)CCC(=O)c2ccc(C(F)(F)F)cc2)CC1 | 1.4 nM
4 | CCC(CC)N1CCN(C(=O)Cc2ccc(-c3ccccc3)cc2)CC1 | 2.9 nM
5 | CCC(CC)N1CCN(C(=O)Cc2ccc(C(C)=O)cc2)CC1 | 24 nM
6 | CCC(CC)N1CCN(C(=O)CCOc2ccc(Cl)cc2)CC1 | 1.2 nM
7 | O=C(CCC(=O)N1CCN(C2CC2)CC1)c1ccc(Cl)cc1 | 13.3 nM
8 | CCC(CC)N1CCN(C(=O)c2ccc(OC(F)(F)F)cc2)CC1 | 93 nM
9 | O=C(CCC(=O)N1CCN(CC2CC2)CC1)c1ccc(Cl)cc1 | 8.3 nM
10 | CCC(CC)N1CCN(C(=O)COc2ccc(OC(F)(F)F)cc2)CC1 | 110 nM
11 | CCC(CC)N1CCN(C(=O)Cc2ccc(OC(F)(F)F)cc2)CC1 | 2.6 nM
12 | CCCC(CCC)N1CCN(C(=O)CCC(=O)c2ccc(Cl)cc2)CC1 | 480 nM
13 | CCC(CC)N1CCN(C(=O)CCOc2ccc(C#N)cc2)CC1 | 0.74 nM
14 | CCC(CC)N1CCN(C(=O)CCc2ccc(C(F)(F)F)cc2)CC1 | 8.5 nM
15 | CCC(CC)N1CCN(C(=O)Cc2ccc(N(C)C)cc2)CC1 | 0.96 nM
16 | O=C(CCC(=O)N1CCN(C2CCC2)CC1)c1ccc(Cl)cc1 | 1.2 nM
17 | O=C(CCC(=O)N1CCN(C2CCCCC2)CC1)c1ccc(Cl)cc1 | 3.6 nM
18 | O=C(CCC(=O)N1CCN(C2CCOCC2)CC1)c1ccc(Cl)cc1 | 9.2 nM
19 | O=C(CCC(=O)N1CCN(C2CCCCCCC2)CC1)c1ccc(Cl)cc1 | 450 nM
20 | CCC(CC)N1CCN(C(=O)CCC(=O)c2ccc(Cl)cc2)CC1 | 0.86 nM
21 | CCC(C)(C)N1CCN(C(=O)CCC(=O)c2ccc(Cl)cc2)CC1 | 0.54 nM
22 | CC(C)N1CCN(C(=O)CCC(=O)c2ccc(Cl)cc2)CC1 | 4.4 nM
23 | O=C(CCC(=O)N1CCN(C2CCCCCC2)CC1)c1ccc(Cl)cc1 | 34 nM
24 | CCC(CC)N1CCN(C(=O)Cc2ccc(C(F)(F)F)cc2)CC1 | 2.3 nM
25 | CCC(CC)N1CCN(C(=O)CCC(=O)c2ccc(OC)c(F)c2)CC1 | 0.43 nM
26 | C#CC(C)(C)N1CCN(C(=O)CCC(=O)c2ccc(Cl)cc2)CC1 | 89 nM
